Drawing on patent publication US20190008790A1, “A METHOD FOR THE PREPARATION OF A DELIVERY DRUG DELIVERY SYSTEM AND A COMPOSITION THEREFOR” (Element Six (UK) Limited, priority 2015, published 2019), this text covers MBC and IC50 for two compounds.

Converted amounts (≈) assume the structure as drawn.

Test [1] concerns Staphylococcus aureus subsp. aureus MRSA252. Kind of test: Minimum Bactericidal Concentration Test (MBC), re-growth as percentage of positive control. The test is classed as cell-based. As to conditions: ciprofloxacin concentration, dilutions of 0.5 mg/ml stock, re-growth vs positive control, read-out: concentration at which activity against MRSA252 was maintained (MBC test). How it is done: In this example, the efficacy of the product of Example 7 was tested against Comparative Example 7 using a Minimum Bactericidal Concentration Test (MBC) to compare the inhibitory.
A sample of the spray dried powder obtained from Example 7 was dispersed into deionised water to give a ciprofloxacin concentration of 0.5 mg/ml (“Solution A”). A dispersion having the same concentration of ciprofloxacin was prepared by dissolving ciprofloxacin into dimethyl sulfoxide (“Solution B”). A third sample (“Solution C”) consisting of a water saturated ciprofloxacin solution was prepared by dispersing powder obtained from Comparative Example 7.
All three solutions were diluted to various concentrations and were subject to Minimum Bactericidal Concentration Test (MBC) to compare the inhibitory activity via re-growth of Staphylococcus aureus subsp. aureus MRSA252 as percentage of positive control. […] Solution B (DMSO/ciprofloxacin organic solution) maintained activity against MRSA252 at 62.5 mg/L (see FIG. 4(b)).

Another test concerns Fusobacterium nucleatum. As to the kind of experiment: IC50 test (half maximal inhibitory concentration) on gram-negative bacterium. In kind it is cell-based. Particulars: Triclosan ppm, percentage growth compared to positive control, 800 ppm stock. An excerpt: The effectiveness of the active pharmaceutical ingredient may be measured by means of its “half maximal inhibitory concentration”, also known as the “IC50” value.
The IC50 of a substance is a measure of the effectiveness of that substance in inhibiting a specific biological or biochemical function. The IC50 indicates how much of a particular drug or other substance (inhibitor) is needed to inhibit a given biological process (or component of a process, i.e. an enzyme, cell, cell receptor or microorganism) by half. It is commonly used as a measure of antagonist drug potency in pharmacological research. The IC50 of a drug can be determined by constructing a dose-response curve and examining the effect of different concentrations of antagonist on reversing agonist activity. IC50 values can be calculated for a given antagonist by determining the concentration needed to inhibit half of the maximum biological response of the agonist.
A sample of the Triclosan™/nano-diamond powder produced according to Example 5 was dispersed into deionized water to form an 800 ppm Triclosan™ dispersion (Solution 1).
Triclosan™ was dissolved into an ethanol/water mixture (50/50 in volume) to form an 800 ppm Triclosan™ solution (Solution 2). An IC50 test was conducted with Solution 2 on gram-negative bacteria (Fusobacterium nucleatum). […]

With `O=C(O)c1cn(C2CC2)c2cc(N3CCNCC3)c(F)cc2c1=O` [Solution B, ciprofloxacin], the MBC in test [1] is 62.5 µg/mL (≈ 189 µM).
For `Oc1cc(Cl)ccc1Oc1ccc(Cl)cc1Cl` [Solution 2, 5-chloro-2-(2,4-dichloro-phenoxy)-phenol], the IC50 result is “around 56 ppm” with Fusobacterium nucleatum and around 56 ppm with Fusobacterium nucleatum (listed as Triclosan™ in a 50:50 by volume water/ethanol solution).
